# Laboratory results: article PMC11374718, “Unlocking opioid neuropeptide dynamics with genetically encoded biosensors” (Nature Neuroscience, 2024)
# Legend:
# κLight1.3a [1] = experiment: in vivo fiber photometry of κLight1.3a in NAcSh, agonist/antagonist drug injection; design: species or system mouse; conditions: κOR-Cre mice NAcSh; aticaprant 3 mg per kg + U50,488 10 mg per kg i.p.; 0–50 min; n = 6
# Procedure: To detect dynorphin signaling at κOR-expressing neurons, we injected κOR-Cre mice with AAV5-CAG-DIO-κLight1.3a and implanted optical fibers in the NAcSh. A subset of mice was also injected with the red-shifted opsin ChRimson (AAV5-DIO-EF1a-ChRimson-tdTomato) in the BLA (Fig. 5a–c and Extended Data Fig. 5a); ChRimson-lacking mice served as a negative control to determine if optical stimulation produced artifactual dynamics in κLight1.3a fluorescence. We first examined the response of κLight1.3a to the agonist U50,488 in these mice (Fig. 5d).
# Mice were pretreated with either vehicle (17:1:1:1 ratio of saline:dimethylsulfoxide:corn oil:ethanol) or aticaprant (Eli Lilly) at 3 mg per kg body weight […] i.p. for 30 min. […]
# Custom MATLAB scripts were developed for analyzing fiber photometry data in the context of mouse behavior. […] After baseline correction, the photometry trace was z-scored relative to the mean and standard deviation of the session. The post-processed fiber photometry signal was analyzed in the context of animal behavior during Pavlovian conditioning and operant task performance. […] Peak, mean and minimum fluorescence was determined during predetermined time windows for the injection period (0–5 min), reward period (5–20 s), release period (0–20 s) or artifact period (0–20 s) subtracted from peak, mean or minimum fluorescence values in a baseline window (−5 to 0 s). […]
# κLight1.3a [2] = experiment: in vivo BLA terminal ChRimson stimulation-evoked κLight1.3a activity in NAcSh after drug pretreatment; design: species or system mouse; conditions: aticaprant 3 mg per kg i.p. pretreatment; normalized to vehicle; 0–20 s; n = 4
structure (smiles),measurement,setting,value
Cc1cc(C)cc([C@@H]2CCCN2Cc2ccc(Oc3ccc(C(N)=O)cc3F)cc2)c1 [aticaprant],Normalized peak fluorescence of κLight1.3a during injection period,κLight1.3a [1],0.29 ± 0.07
same,"Normalized peak fluorescence of κLight1.3a, ChRimson stimulation-evoked trials",κLight1.3a [2],0.63 ± 0.14
